Reference: ChEMBL document CHEMBL1142081, “Evaluation of the in vivo activity of tribendimidine against Schistosoma mansoni, Fasciola hepatica, Clonorchis sinensis, and Opisthorchis viverrini” (2007)
The source made the active and inactive calls. The calls are words filed in the database; no cut-off is given here.

Key:
[1] = Reduction of worm burden in Clonorchis sinensis infected Wistar rat at 75 mg/kg, po relative to control; type: functional; design: scale not given: the % may be the effect or the level left
[2] = Reduction of worm burden in Opisthorchis viverrini infected Syrian Gold hamster at 400 mg/kg, po relative to control; type: functional; design: scale not given: the % may be the effect or the level left
Fasciola hepatica [3] = assay: Reduction of worm burden in Fasciola hepatica infected Wistar rat at 800 mg/kg, po relative to control; type: functional; design: scale not given: the % may be the effect or the level left
Schistosoma mansoni [4] = assay: Effect on Schistosoma mansoni Liberian infected NMRI mouse assessed as infection cured mice at 400 mg/kg, po relative to control
Schistosoma mansoni [5] = assay: Reduction of female worm burden in Schistosoma mansoni Liberian infected NMRI mouse at 800 mg/kg, po relative to control; type: functional; design: scale not given: the % may be the effect or the level left
Fasciola hepatica [6] = assay: Effect on Fasciola hepatica infected Wistar rat assessed as infection cured rats at 800 mg/kg, po relative to control; type: functional, organism-based; design: dose 800 mg/kg
Schistosoma mansoni [7] = assay: Reduction of total worm burden in Schistosoma mansoni Liberian infection NMRI mouse at 800 mg/kg, po relative to control; type: functional; design: scale not given: the % may be the effect or the level left
[8] = Reduction of worm burden in Opisthorchis viverrini infected Syrian Gold hamster at 200 mg/kg, po relative to control; type: functional; design: scale not given: the % may be the effect or the level left
[9] = Reduction of worm burden in Clonorchis sinensis infected Wistar rat at 150 mg/kg, po relative to control; type: functional; design: scale not given: the % may be the effect or the level left

SMILES: C/C(=N/c1ccc(/N=C/c2ccc(/C=N/c3ccc(/N=C(/C)N(C)C)cc3)cc2)cc1)N(C)C [TRIBENDIMIDINE]
- Activity [1]: 68.9%
- Activity [2]: 95.7%
- Activity (Fasciola hepatica [3]): 0%
- Activity (Schistosoma mansoni [4]): Active
- Activity (Schistosoma mansoni [5]): 0%
- Activity (Fasciola hepatica [6]): Active
- Activity (Schistosoma mansoni [7]): 0%
- Activity [8]: 61.4%
- Activity [9]: 99.1%
